Results taken from article PMC5077133, “Towards Development of Small Molecule Lipid II Inhibitors as Novel Antibiotics” (PLoS ONE, 2016).

Assay: Liver microsome stability
Assay type: in vitro ADME
Settings: human liver microsomes, pH 7.4, 1h 37 °C
Method: The in vitro microsome stability assay was performed using human liver microsomes and a Biomek FXP liquid handling workstation to deliver reagents to a 96 deep well plate on a shaking peltier with temperature controls. Human liver microsomes were purchased from Corning®. The test compound was incubated in an aqueous reaction mixture (200 ul total volume) consisting of human liver microsomes (150 mixed donor pool) and NADPH Regenerating System Solutions A and B (Corning®) in the presence of 100 mM potassium phosphate buffer (pH 7.4). The NADPH solution A comprises nicotinamide adenine dinucleotide phosphate (NADP+) and glucose 6-phosphate and solution B contains glucose-6-phosphate dehydrogenase. Solutions A and B were combined prior to adding to the reaction plate to generate a supply of NADPH. The NADPH was added last to simultaneously initiate the reactions. The final concentration of the test compound was 10 uM and the microsomal protein concentration was 0.5 mg/ml. After incubation at 37°C, the reaction was terminated at 0, 5, 10, 20, 30, 40, 50 and 60 minutes, respectively, by the addition of 600 uL of acetonitrile. Three replicates were run for each time point. The quenched reaction plate was centrifuged at 4500 rpm for 10 minutes. The supernatant was diluted 1:2 in 30% Methanol in water for LC/MS/MS analyses to monitor substrate depletion. Water was substituted for NADPH for the zero time-point samples. A control plate, without NADPH cofactor, was completed on the same day, using the same conditions.
The half-life (t1/2) was obtained using the equation below: t1/2=−0.693/slope
Where slope is the slope of the line formed by ln(% remaining test compound) vs. time. The in vitro intrinsic clearance (CLint) value was calculated using equation: CLint=(0.693/t1/2)(incubation volume(ul)/total microsomal protein(mg))

Compound: CN(C)c1ccc(/C=C/c2cc(-c3ccc(Br)cc3)cc(-c3ccc(Br)cc3)[o+]2)cc1 [6jc48-1]
- half-life at 10 uM (read-out: Liver microsome stability Half-life): > 1 h
- microsomal CLint at 10 uM (read-out: Liver microsome stability clearance): < 23 µL/min/mg
